Reference: patent US8268814B2, “Substituted sulfonamide compounds” (Gruenenthal GmbH, priority 2008, dated 2012)

Biological target: T1, B1R receptor of the rat (rB1R) (Rattus norvegicus, UniProt P97583)
T1 construct: expressed in transfected cells; host or cells: CHO K1 cells (Chinese hamster ovary), stably transfected
T1 sequence (P97583 1-337): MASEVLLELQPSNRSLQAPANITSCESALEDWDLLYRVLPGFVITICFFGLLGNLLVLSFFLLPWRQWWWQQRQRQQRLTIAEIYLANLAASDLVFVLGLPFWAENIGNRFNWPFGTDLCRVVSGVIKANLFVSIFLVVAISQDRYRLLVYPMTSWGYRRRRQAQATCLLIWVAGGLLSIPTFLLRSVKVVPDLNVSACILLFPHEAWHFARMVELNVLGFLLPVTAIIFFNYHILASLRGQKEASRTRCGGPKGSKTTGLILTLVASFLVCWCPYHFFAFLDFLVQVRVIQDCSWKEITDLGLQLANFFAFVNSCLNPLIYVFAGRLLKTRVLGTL
Test: Functional FLIPR Ca2+ assay on the bradykinin 1 receptor, rat (rB1R CHO K1 cells)
Format: cell-based
Conditions: test substance 10 μM; CHO K1 cells transfected with rat B1R gene; agonist Des-Arg9-bradykinin at EC80; % inhibition compared with maximum achievable inhibition; read-out: B1R antagonism, rat [10 μM] % inhibition
Description: The agonistic or antagonistic action of substances can be quantified on the bradykinin 1 receptor (B1R) of the human and rat species with ectopically expressing cell lines (CHO K1 cells) and with the aid of a Ca^2+-sensitive dyestuff (Fluo-4) in a fluorescent imaging plate reader (FLIPR). The figure in % activation is based on the Ca^2+ signal after addition of Lys-Des-Arg^9-bradykinin (0.5 nM) or Des-Arg^9-bradykinin (100 nM). Antagonists lead to a suppression of the Ca^2+ inflow after addition of the agonist. % inhibition compared with the maximum achievable inhibition is stated.
The agonistic or antagonistic action of substances can be determined on the bradykinin 1 receptor (B1R) of the human and rat species with the following assay. In accordance with this assay, the Ca^2+ inflow through the channel is quantified with the aid of a Ca^2+-sensitive dyestuff (type Fluo-4, Molecular Probes Europe BV, Leiden, Holland) in a fluorescent imaging plate reader (FLIPR, Molecular Devices, Sunnyvale, USA).
Chinese hamster ovary cells (CHO K1 cells) transfected stably with the human B1R gene (hB1R cells) or the B1R gene of the rat (rB1R cells) are used. For functional studies, these cells are plated out on black 96-well plates with a clear base (BD Biosciences, Heidelberg, Germany or Greiner, Frickenhausen, Germany) in a density of 20,000-35,000 cells/well. The cells are left overnight at 37° C. and 5% CO2 in culture medium (hB1R cells: Nutrient Mixture Ham's F12, Gibco Invitrogen GmbH, Karlsruhe, Germany or DMEM, Sigma-Aldrich, Taufkirchen, Germany; rB1R cells: D-MEM/F12, Gibco Invitrogen GmbH, Karlsruhe, Germany) with 10 vol. % FBS (foetal bovine serum, Gibco Invitrogen GmbH, Karlsruhe, Germany or PAN Biotech GmbH, Aidenbach, Germany). On the following day, the cells are loaded for 60 min at 37° C. with 2.13 μM Fluo-4 (Molecular Probes Europe BV, Leiden, Holland) in HBSS buffer (Hank's buffered saline solution, Gibco Invitrogen GmbH, Karlsruhe, Germany) with 2.5 mM probenecid (Sigma-Aldrich, Taufkirchen, Germany) and 10 mM HEPES (Sigma-Aldrich, Taufkirchen, Germany). The plates are then washed 2× with HBSS buffer, and HBSS buffer which additionally contains 0.1% BSA (bovine serum albumin; Sigma-Aldrich, Taufkirchen, Germany), 5.6 mM glucose and 0.05% gelatine (Merck KgaA, Darmstadt, Germany) is added. After a further incubation of 20 minutes at room temperature, the plates are inserted into the FLIPR for the Ca^2+ measurement.
Alternatively, the plates are washed with buffer A (15 mM HEPES, 80 mM NaCl, 5 mM KCl, 1.2 mM CaCl2, 0.7 mM MgSO4, 2 g/l glucose, 2.5 mM probenecid), buffer A is added and the plates are loaded with 2.5 μM Fluo-4 and 0.025% Pluronic F127 (Sigma-Aldrich, Taufkirchen, Germany). Thereafter, the cells are washed 2× with buffer A and incubated for 30 minutes with buffer A, which additionally contains 0.05% BSA and 0.05% gelatine, at room temperature and thereafter inserted into the FLIPR for the Ca^2+ measurement. The Ca^2+-dependent fluorescence is measured here before and after addition of substances (λex=488 nm, λem=540 nm). Quantification is by measurement of the highest fluorescence intensity (FC, fluorescence counts) over time.
The FLIPR protocol consists of 2 additions of substance. Test substances (10 μM) are first pipetted on to the cells and the Ca^2+ inflow is compared with the control (hB1R: Lys-Des-Arg^9-bradykinin >=50 nM; rB1R: Des-Arg^9-bradykinin 10 μM). This gives the figure in % activation based on the Ca^2+ signal after addition of Lys-Des-Arg^9-bradykinin (>=50 nM) or Des-Arg^9-bradykinin (10 μM). After incubation for 10-20 minutes, Lys-Des-Arg^9-bradykinin (hB1R) or Des-Arg^9-bradykinin (rB1R) in the concentration of the EC80 is applied and the inflow of Ca^2+ is likewise determined. Antagonists lead to a suppression of the Ca^2+ inflow. % inhibition compared with the maximum achievable inhibition is calculated. In order to determine the IC50 value, the substances are added in various concentrations. […]

inhibition at 10 µM | Compound
56% | Cc1cc(S(=O)(=O)N2CCCCC2CCC(=O)N2CCc3onc(C(=O)N4CCCCC4)c3C2)c(C)cc1Cl (centres unmarked) [Example 04, 3-(1-(4-chloro-2,5-dimethylphenylsulfonyl)piperidin-2-yl)-1-(3-(piperidine-1-carbonyl)-6,7-dihydroisoxazolo[4,5-c]pyridin-5(4H)-yl)propan-1-one]
97% | COc1cc(C)c(S(=O)(=O)N(C)CCOCC(=O)N2CCc3[nH]cnc3C2c2ccccc2)c(C)c1 (centres unmarked) [Example 66, 4-Methoxy-N,2,6-trimethyl-N-[2-[2-oxo-2-(4-phenyl-4,5,6,7-tetrahydro-1H-imidazo[4,5-c]pyridin-5-yl)-ethoxy]-ethyl]-benzenesulfonic acid amide]
103% | Cc1cccc(Cl)c1S(=O)(=O)N1CCCCC1CCCC(=O)N1CCc2sc(CN3CCN(C)CC3)cc2C1 (centres unmarked) [Example 68, 4-[1-[(2-Chloro-6-methyl-phenyl)sulfonyl]-piperidin-2-yl]-1-[2-[(4-methyl-piperazin-1-yl)-methyl]-4,5,6,7-tetrahydro-thieno[3,2-c]pyridin-5-yl]-butan-1-one]
64% | Cc1cccc(Cl)c1S(=O)(=O)N1CCCCC1CCCC(=O)N1CCc2[nH]cnc2C1c1ccccc1 (centres unmarked) [Example 69, 4-[1-[(2-Chloro-6-methyl-phenyl)sulfonyl]-piperidin-2-yl]-1-(4-phenyl-4,5,6,7-tetrahydro-1H-imidazo[4,5-c]pyridin-5-yl)-butan-1-one]
101% | COc1cc(C)c(S(=O)(=O)N2CCCCC2CCCC(=O)N2CCc3[nH]cnc3C2c2ccccc2)c(C)c1 (centres unmarked) [Example 71, 4-[1-[(4-Methoxy-2,6-dimethyl-phenyl)sulfonyl]-piperidin-2-yl]-1-(4-phenyl-4,5,6,7-tetrahydro-1H-imidazo[4,5-c]pyridin-5-yl)-butan-1-one]
99% | CN1CCN(Cc2cc3c(s2)CCN(C(=O)CCCC2CCCCN2S(=O)(=O)c2cccc4ccccc24)C3)CC1 (centres unmarked) [Example 73, 1-[2-[(4-Methyl-piperazin-1-yl)-methyl]-4,5,6,7-tetrahydro-thieno[3,2-c]pyridin-5-yl]-4-[1-(naphthalen-1-ylsulfonyl)-piperidin-2-yl]-butan-1-one]
95% | O=C(CCCC1CCCCN1S(=O)(=O)c1cccc2ccccc12)N1CCc2[nH]cnc2C1c1ccccc1 (centres unmarked) [Example 74, 4-[1-(Naphthalen-1-ylsulfonyl)-piperidin-2-yl]-1-(4-phenyl-4,5,6,7-tetrahydro-1H-imidazo[4,5-c]pyridin-5-yl)-butan-1-one]
103% | CN1CCN(Cc2cc3c(s2)CCN(C(=O)CCCC2CCCCN2S(=O)(=O)c2ccc4ccccc4c2)C3)CC1 (centres unmarked) [Example 75, 1-[2-[(4-Methyl-piperazin-1-yl)-methyl]-4,5,6,7-tetrahydro-thieno[3,2-c]pyridin-5-yl]-4-[1-(naphthalen-2-ylsulfonyl)-piperidin-2-yl]-butan-1-one]
48% | O=C(CCCC1CCCCN1S(=O)(=O)c1ccc2ccccc2c1)N1CCc2[nH]cnc2C1c1ccccc1 (centres unmarked) [Example 76, 4-[1-(Naphthalen-2-ylsulfonyl)-piperidin-2-yl]-1-(4-phenyl-4,5,6,7-tetrahydro-1H-imidazo[4,5-c]pyridin-5-yl)-butan-1-one]
98% | COc1cc(C)c(S(=O)(=O)N(CCOCC(=O)N2CCc3sc(CN4CCN(C)CC4)cc3C2)Cc2ccc3c(c2)OCOC3)c(C)c1 [Example 78, N-(4H-[1,3]Benzodioxin-7-yl-methyl)-4-methoxy-2,6-dimethyl-N-[2-[2-[2-[(4-methyl-piperazin-1-yl)-methyl]-4,5,6,7-tetrahydro-thieno[3,2-c]pyridin-5-yl]-2-oxo-ethoxy]-ethyl]-benzenesulfonic acid amide]
102% | COc1cc(C)c(S(=O)(=O)N(CCOCC(=O)N2CCc3sc(CN4CCN(C)CC4)cc3C2)Cc2ccccc2)c(C)c1 [Example 81, N-Benzyl-4-Methoxy-2,6-dimethyl-N-[2-[2-[2-[(4-methyl-piperazin-1-yl)-methyl]-4,5,6,7-tetrahydro-thieno[3,2-c]pyridin-5-yl]-2-oxo-ethoxy]-ethyl]-benzenesulfonic acid amide]
100% | COc1cc(C)c(S(=O)(=O)N(CCOCC(=O)N2CCc3[nH]cnc3C2c2ccccc2)Cc2ccccc2)c(C)c1 (centres unmarked) [Example 82, N-Benzyl-4-Methoxy-2,6-dimethyl-N-[2-[2-oxo-2-(4-phenyl-4,5,6,7-tetrahydro-1H-imidazo[4,5-c]pyridin-5-yl)-ethoxy]-ethyl]-benzenesulfonic acid amide]
101% | COc1cc(C)c(S(=O)(=O)N(CCOCC(=O)N2CCc3sc(CN4CCN(C)CC4)cc3C2)c2ccccc2)c(C)c1 [Example 83, 4-Methoxy-2,6-Dimethyl-N-[2-[2-[2-[(4-methyl-piperazin-1-yl)-methyl]-4,5,6,7-tetrahydro-thieno[3,2-c]pyridin-5-yl]-2-oxo-ethoxy]-ethyl]-N-phenyl-benzenesulfonic acid amide]
97% | COc1cc(C)c(S(=O)(=O)N(CCOCC(=O)N2CCc3[nH]cnc3C2c2ccccc2)c2ccccc2)c(C)c1 (centres unmarked) [Example 84, 4-Methoxy-2,6-Dimethyl-N-[2-[2-oxo-2-(4-phenyl-4,5,6,7-tetrahydro-1H-imidazo[4,5-c]pyridin-5-yl)-ethoxy]-ethyl]-N-phenyl-benzenesulfonic acid amide]
102% | COc1cc(C)c(S(=O)(=O)N2c3ccccc3CCC2COCC(=O)N2CCc3sc(CN4CCN(C)CC4)cc3C2)c(C)c1 (centres unmarked) [Example 85, 2-[[1-[(4-Methoxy-2,6-dimethyl-phenyl)sulfonyl]-1,2,3,4-tetrahydro-quinolin-2-yl]-methoxy]-1-[2-[(4-methyl-piperazin-1-yl)-methyl]-4,5,6,7-tetrahydro-thieno[3,2-c]pyridin-5-yl]-ethanone]
96% | COc1cc(C)c(S(=O)(=O)N2c3ccccc3CCC2COCC(=O)N2CCc3[nH]cnc3C2c2ccccc2)c(C)c1 (centres unmarked) [Example 86, 2-[[1-[(4-Methoxy-2,6-dimethyl-phenyl)sulfonyl]-1,2,3,4-tetrahydro-quinolin-2-yl]-methoxy]-1-(4-phenyl-4,5,6,7-tetrahydro-1H-imidazo[4,5-c]pyridin-5-yl)-ethanone]
103% | CN1CCN(Cc2cc3c(s2)CCN(C(=O)CCCC2CCCCN2S(=O)(=O)c2ccccc2C(F)(F)F)C3)CC1 (centres unmarked) [Example 87, 1-[2-[(4-Methyl-piperazin-1-yl)-methyl]-4,5,6,7-tetrahydro-thieno[3,2-c]pyridin-5-yl]-4-[1-[[2-(trifluoromethyl)-phenyl]sulfonyl]-piperidin-2-yl]-butan-1-one]
